{"source": "paper PMC5840332", "about": "“Disease-associated missense mutations in GluN2B subunit alter NMDA receptor ligand binding and ion channel properties” (Nature Communications, 2018)", "key": {"[1]": {"tested_on": "NMDAR-mediated EPSCs, hippocampal neurons", "assay": "NMDAR-mediated EPSCs in cultured hippocampal neurons, pharmacological characterisation", "type": "cell-based, rat", "procedure": "The impact of the GluN2B mutations was assessed on neuronal NMDARs by evoking network-driven NMDAR-mediated EPSCs in hippocampal neurons transfected with either wild-type or mutant GluN2B constructs. Hippocampal cultures were superfused with Krebs containing 10 μM CNQX and 20 μM bicuculline to block non-NMDA receptor and GABAA receptor-mediated currents, respectively. […] To obtain phase-locked EPSCs, a loose cell-attached patch electrode was used to serially stimulate presynaptic neurons yielding evoked EPSCs in postsynaptic neurons.\nThe relative contributions of GluN2A and GluN2B subunits to NMDAR-mediated currents (at 13–15 DIV) was assessed using the selective antagonists, TCN213 (30 μM, for GluN2A) and ifenprodil (3 μM, for GluN2B).\nDissected hippocampi were dissociated from E18 Sprague Dawley rat embryos using procedures and protocols that have been approved by the UK Home Office. They were dissociated into single cells using 0.1% w/v trypsin and serially triturated with flame-polished Pasteur pipettes. […] Neurons were transfected after 10 days in vitro (DIV) with either cDNAs for the GluN2B WT or mutants together with DsRed using Effectene (Qiagen) and recorded at 13–15 DIV.\n(§1) Cells were voltage clamped at −60 mV.\nNMDAR-mediated EPSCs were evoked by direct stimulation of single neighbouring neurons using a loose cell-attached patch electrode filled with Krebs and containing a bipolar stimulating electrode. […] For the pharmacological characterisation of NMDAR-mediated EPSCs, the selective antagonists ifenprodil (+)-hemitartrate (Santacruz biotechnology) and TCN213 (Tocris) were used.\nEPSCs were analysed offline using WinWCP (Strathclyde Electrophysiology Software, UK). Peak EPSC amplitude, the area of the EPSC (charge transfer) and EPSC decays were measured. The decay time constants (τ) were determined by fitting the EPSC decays with a double exponential function. The weighted time constant (τw) was calculated using the following equation, where A indicates the relative area of each time constant.3 τw=((A1.τ1)+(A2.τ2))∕A1+A2."}, "GluN1–GluN2B^V618G [2]": {"target": "T1, GluN1–GluN2B^V618G (Homo sapiens, UniProt Q05586+Q13224, V618G)", "T1 sequence (Q13224 27-1484 V618G, other chains not shown)": "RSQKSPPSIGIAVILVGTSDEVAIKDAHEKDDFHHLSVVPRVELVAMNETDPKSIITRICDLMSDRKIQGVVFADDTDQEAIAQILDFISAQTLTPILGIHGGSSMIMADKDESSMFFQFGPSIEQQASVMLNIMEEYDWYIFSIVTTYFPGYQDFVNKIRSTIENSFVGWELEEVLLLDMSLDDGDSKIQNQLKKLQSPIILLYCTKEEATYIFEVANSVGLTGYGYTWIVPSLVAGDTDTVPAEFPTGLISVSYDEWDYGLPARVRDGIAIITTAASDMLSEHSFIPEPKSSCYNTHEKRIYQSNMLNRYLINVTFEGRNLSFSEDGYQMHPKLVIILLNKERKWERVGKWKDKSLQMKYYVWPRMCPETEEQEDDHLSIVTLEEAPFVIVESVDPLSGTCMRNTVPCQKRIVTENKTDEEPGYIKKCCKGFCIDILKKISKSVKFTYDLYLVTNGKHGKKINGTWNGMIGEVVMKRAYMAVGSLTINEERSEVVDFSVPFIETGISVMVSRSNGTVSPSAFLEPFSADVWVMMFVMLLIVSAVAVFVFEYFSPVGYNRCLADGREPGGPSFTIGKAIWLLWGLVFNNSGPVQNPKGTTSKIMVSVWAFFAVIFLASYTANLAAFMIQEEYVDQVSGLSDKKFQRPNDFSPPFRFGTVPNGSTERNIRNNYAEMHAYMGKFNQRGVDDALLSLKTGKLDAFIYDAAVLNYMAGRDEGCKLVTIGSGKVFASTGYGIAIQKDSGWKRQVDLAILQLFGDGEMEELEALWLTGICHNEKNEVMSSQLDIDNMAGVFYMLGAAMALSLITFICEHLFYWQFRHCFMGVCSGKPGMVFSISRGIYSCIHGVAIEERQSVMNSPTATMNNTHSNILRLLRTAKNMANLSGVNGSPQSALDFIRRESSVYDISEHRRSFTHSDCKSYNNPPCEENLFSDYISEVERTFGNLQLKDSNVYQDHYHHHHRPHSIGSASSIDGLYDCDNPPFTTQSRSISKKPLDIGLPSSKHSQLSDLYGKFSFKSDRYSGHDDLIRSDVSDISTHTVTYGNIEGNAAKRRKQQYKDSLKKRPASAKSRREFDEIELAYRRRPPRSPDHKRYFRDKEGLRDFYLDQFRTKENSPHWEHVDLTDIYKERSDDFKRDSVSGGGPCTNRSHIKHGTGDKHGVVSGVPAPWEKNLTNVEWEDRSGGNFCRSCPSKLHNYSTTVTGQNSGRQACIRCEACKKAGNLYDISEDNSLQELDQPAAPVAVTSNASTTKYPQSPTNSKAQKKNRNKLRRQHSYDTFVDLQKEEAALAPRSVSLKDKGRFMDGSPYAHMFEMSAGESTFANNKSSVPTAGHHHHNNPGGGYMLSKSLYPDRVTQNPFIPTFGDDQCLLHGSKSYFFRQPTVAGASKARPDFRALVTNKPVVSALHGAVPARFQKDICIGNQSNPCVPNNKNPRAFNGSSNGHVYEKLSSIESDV", "assay": "Mg2+ block of glutamate currents in HEK293 cells (concentration–inhibition, I–V, permeation model)", "type": "cell-based", "set-up": "expressed in transfected cells; host or cells: HEK293", "conditions": "−60 mV; for Effect of external Mg^2+ on glutamate current (Mg2+ block): 1 μM–10 mM Mg^2+"}, "GluN1–GluN2B^N615I [3]": {"target": "T2, GluN1–GluN2B^N615I (Homo sapiens, UniProt Q05586+Q13224, N615I)", "T2 sequence (Q13224 27-1484 N615I, other chains not shown)": "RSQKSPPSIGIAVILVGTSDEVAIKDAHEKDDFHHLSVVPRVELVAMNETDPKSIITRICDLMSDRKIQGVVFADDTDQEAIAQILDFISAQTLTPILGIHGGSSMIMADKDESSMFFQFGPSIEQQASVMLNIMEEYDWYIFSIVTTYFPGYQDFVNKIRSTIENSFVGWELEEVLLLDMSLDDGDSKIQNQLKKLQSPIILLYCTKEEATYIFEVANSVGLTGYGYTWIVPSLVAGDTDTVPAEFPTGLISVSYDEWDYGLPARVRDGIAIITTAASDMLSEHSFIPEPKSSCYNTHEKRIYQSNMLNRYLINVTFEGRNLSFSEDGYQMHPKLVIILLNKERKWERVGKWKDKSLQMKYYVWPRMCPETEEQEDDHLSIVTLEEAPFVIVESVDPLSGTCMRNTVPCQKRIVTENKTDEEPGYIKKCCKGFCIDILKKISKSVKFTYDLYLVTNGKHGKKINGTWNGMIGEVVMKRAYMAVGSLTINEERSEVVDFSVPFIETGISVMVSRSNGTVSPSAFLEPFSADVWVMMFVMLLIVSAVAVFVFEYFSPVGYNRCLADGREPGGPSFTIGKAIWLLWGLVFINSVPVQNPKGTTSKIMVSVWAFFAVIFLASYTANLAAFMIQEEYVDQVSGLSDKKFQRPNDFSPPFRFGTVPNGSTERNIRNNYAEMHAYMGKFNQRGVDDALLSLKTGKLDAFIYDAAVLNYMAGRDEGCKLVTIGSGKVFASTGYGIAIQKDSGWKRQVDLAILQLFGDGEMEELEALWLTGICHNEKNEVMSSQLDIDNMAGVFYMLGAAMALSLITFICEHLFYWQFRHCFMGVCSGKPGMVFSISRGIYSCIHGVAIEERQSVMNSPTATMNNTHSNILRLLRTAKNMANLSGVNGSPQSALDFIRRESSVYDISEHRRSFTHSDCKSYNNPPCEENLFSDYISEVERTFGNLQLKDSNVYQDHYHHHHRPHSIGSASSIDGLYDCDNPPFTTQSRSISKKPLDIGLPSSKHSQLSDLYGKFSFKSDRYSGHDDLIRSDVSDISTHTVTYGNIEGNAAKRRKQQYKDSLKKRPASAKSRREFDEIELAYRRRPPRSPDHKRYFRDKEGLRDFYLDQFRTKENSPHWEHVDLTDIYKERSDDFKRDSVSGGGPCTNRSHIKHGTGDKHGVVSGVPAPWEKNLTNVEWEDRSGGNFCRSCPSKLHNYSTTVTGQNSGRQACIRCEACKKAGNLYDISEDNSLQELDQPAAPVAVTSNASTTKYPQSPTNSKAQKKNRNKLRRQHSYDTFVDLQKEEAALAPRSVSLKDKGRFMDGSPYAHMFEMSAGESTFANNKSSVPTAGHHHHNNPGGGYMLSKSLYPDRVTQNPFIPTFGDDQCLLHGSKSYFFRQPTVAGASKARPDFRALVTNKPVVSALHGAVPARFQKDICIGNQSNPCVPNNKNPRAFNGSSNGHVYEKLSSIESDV", "assay": "Mg2+ block of glutamate currents in HEK293 cells (concentration–inhibition, I–V, permeation model)", "type": "cell-based", "set-up": "expressed in transfected cells; host or cells: HEK293", "conditions": "1 μM–10 mM Mg^2+, −60 mV"}, "GluN1–GluN2B^WT [4]": {"target": "T3, GluN1–GluN2B^WT (Homo sapiens, UniProt Q05586+Q13224)", "T3 sequence (Q13224 27-1484, other chains not shown)": "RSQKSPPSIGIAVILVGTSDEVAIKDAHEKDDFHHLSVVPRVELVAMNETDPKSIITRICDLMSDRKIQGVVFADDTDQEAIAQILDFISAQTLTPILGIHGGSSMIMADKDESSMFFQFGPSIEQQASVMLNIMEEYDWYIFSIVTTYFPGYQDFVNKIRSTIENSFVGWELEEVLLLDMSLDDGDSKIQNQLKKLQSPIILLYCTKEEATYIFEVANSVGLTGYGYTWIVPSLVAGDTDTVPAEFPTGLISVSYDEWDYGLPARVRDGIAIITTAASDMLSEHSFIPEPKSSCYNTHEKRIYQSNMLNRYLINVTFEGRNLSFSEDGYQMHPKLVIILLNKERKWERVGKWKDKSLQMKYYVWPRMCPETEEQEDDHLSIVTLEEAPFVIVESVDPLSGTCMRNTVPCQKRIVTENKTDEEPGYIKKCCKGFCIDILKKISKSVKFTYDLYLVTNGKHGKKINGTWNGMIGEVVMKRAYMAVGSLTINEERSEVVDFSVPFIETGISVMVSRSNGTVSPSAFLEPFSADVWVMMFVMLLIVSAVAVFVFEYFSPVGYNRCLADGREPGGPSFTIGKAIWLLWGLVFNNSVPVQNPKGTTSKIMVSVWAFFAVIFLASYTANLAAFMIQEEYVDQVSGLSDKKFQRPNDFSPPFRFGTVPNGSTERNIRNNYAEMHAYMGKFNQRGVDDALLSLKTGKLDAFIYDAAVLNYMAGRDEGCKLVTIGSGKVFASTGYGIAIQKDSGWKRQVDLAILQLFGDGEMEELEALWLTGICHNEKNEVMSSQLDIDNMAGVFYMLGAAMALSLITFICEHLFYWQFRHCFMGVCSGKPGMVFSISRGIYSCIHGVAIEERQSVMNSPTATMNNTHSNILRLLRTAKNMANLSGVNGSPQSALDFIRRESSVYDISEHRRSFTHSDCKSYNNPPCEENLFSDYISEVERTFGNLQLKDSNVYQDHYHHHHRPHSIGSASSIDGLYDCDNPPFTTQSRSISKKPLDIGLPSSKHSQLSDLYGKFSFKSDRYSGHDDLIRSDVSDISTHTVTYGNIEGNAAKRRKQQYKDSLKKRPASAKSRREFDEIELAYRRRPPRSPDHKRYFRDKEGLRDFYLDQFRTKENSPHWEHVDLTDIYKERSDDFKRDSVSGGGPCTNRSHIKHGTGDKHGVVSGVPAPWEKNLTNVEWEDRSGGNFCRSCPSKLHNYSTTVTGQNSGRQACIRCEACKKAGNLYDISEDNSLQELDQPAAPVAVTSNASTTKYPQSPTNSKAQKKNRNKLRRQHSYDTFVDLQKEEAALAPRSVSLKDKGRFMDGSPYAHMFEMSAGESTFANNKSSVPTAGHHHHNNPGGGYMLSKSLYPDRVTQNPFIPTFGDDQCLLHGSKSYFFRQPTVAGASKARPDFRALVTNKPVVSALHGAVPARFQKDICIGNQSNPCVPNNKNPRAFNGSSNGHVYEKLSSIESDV", "assay": "Mg2+ block of glutamate currents in HEK293 cells (concentration–inhibition, I–V, trapping model)", "type": "cell-based", "set-up": "expressed in transfected cells; host or cells: HEK293"}, "GluN1–GluN2B^N615I [5]": {"target": "T2, GluN1–GluN2B^N615I", "assay": "Ion permeability experiments in Mg2+ or Ca2+ solution, HEK293 cells", "type": "cell-based", "set-up": "expressed in transfected cells; host or cells: HEK293", "conditions": "−60 mV", "description": "(§2) To assess Mg^2+ permeability the external solution was altered such that Mg^2+ was the only current-carrying cation (Mg^2+ solution). […] The same result was apparent for GluN1–GluN2B^N615I (Fig. 4a; Table 1). […] To assess whether the channel mutants affected Ca^2+ permeation, we modified the external solution to make Ca^2+ the only current-carrying cation[24] (Ca^2+ solution). […] This implied a significant reduction in Ca^2+ permeation for GluN2B^N615I.\nas §1"}, "GluN1–GluN2B^V618G [6]": {"target": "T1, GluN1–GluN2B^V618G", "assay": "Ion permeability experiments in Mg2+ or Ca2+ solution, HEK293 cells", "type": "cell-based", "set-up": "expressed in transfected cells; host or cells: HEK293", "conditions": "−60 mV", "description": "as §2, §1"}, "GluN1–GluN2B^WT [7]": {"target": "T3, GluN1–GluN2B^WT", "assay": "Ion permeability experiments in Mg2+ or Ca2+ solution, HEK293 cells", "type": "cell-based", "set-up": "expressed in transfected cells; host or cells: HEK293", "conditions": "−60 mV", "description": "as §2, §1"}, "[8]": {"conditions": "3 μM ifenprodil, 13–15 DIV untransfected neurons"}, "[9]": {"conditions": "Mg^2+ solution (100 mM), 10 μM glutamate and 10 μM glycine"}, "[10]": {"conditions": "current in Mg^2+ solution as % of current in Krebs"}}, "note": "Where “and” joins values, the source holds several entries; their conditions need not be identical. Equal values may be shown once."}
{"smiles": "N[C@@H](CCCP(=O)(O)O)C(=O)O", "note": "[APV]", "values": [{"measurement": "Effect on spontaneous/evoked EPSCs", "setting": "[1]; 20 μM APV, 0 Mg^2+, 10 μM CNQX, 20 μM bicuculline", "value": "blocked"}]}
{"smiles": "CC(C(O)c1ccc(O)cc1)N1CCC(Cc2ccccc2)CC1", "note": "(stereo not drawn) [Ifenprodil, ifenprodil (+)-hemitartrate]", "values": [{"measurement": "Decrease of EPSC decay time", "setting": "[1]; [8]", "value": 30, "unit": "%"}, {"measurement": "Effect on peak EPSC amplitude", "setting": "[1]; [8]", "value": "reduced the peak EPSC amplitude"}]}
{"smiles": "[Mg+2]", "note": "[Mg^2+]", "values": [{"measurement": "Effect of external Mg^2+ on glutamate current (Mg2+ block)", "setting": "GluN1–GluN2B^V618G [2]", "value": "unaffected by external Mg^2+"}, {"measurement": "Effect of external Mg^2+ on glutamate current (Mg2+ block)", "setting": "GluN1–GluN2B^V618G [2]; listed as Mg2+", "value": "insensitive to Mg2+"}, {"measurement": "Change in current at high Mg^2+ concentrations", "setting": "GluN1–GluN2B^V618G [2]; 3–10 mM Mg^2+", "value": "small increase in current"}, {"measurement": "Effect of external Mg^2+ on glutamate current (Mg2+ block)", "setting": "GluN1–GluN2B^N615I [3]", "value": "unaffected by external Mg^2+"}, {"measurement": "Effect of external Mg^2+ on glutamate current (Mg2+ block)", "setting": "GluN1–GluN2B^N615I [3]; listed as Mg2+", "value": "insensitive to Mg2+"}, {"measurement": "k-bi (0mV), Mg2+ unbinding rate constant to inside", "setting": "GluN1–GluN2B^WT [4]; predicted rate constant, 0 mV", "value": 25124, "unit": "s⁻¹"}, {"measurement": "k-bo (0mV), Mg2+ unbinding rate constant to outside", "setting": "GluN1–GluN2B^WT [4]; predicted rate constant, 0 mV", "value": 24686, "unit": "s⁻¹"}, {"measurement": "Kd", "setting": "GluN1–GluN2B^WT [4]; read-out: Dissociation constant for Mg^2+ binding at −60 mV, trapping block model, −60 mV", "value": 123, "unit": "µM"}, {"measurement": "IC50", "setting": "GluN1–GluN2B^WT [4]; read-out: Mg^2+ IC50 (−60 mV), 10 μM glutamate and 10 μM glycine, −60 mV", "value": 142, "unit": "µM"}, {"measurement": "δMg, fraction of membrane potential sensed by Mg^2+", "setting": "GluN1–GluN2B^WT [4]; trapping block model fit", "value": "0.88 ± 0.04"}, {"measurement": "IMg current density", "setting": "GluN1–GluN2B^N615I [5]; [9]", "value": "−0.09 ± 0.03", "unit": "pA/pF"}, {"measurement": "IMg/IKrebs", "setting": "GluN1–GluN2B^N615I [5]; [10]", "value": "1.63 ± 0.64", "unit": "%"}, {"measurement": "IMg current density", "setting": "GluN1–GluN2B^V618G [6]; [9]", "value": "−10.28 ± 2.53", "unit": "pA/pF"}, {"measurement": "IMg/IKrebs", "setting": "GluN1–GluN2B^V618G [6]; [10]", "value": "58.4 ± 9.8% and 58.46 ± 9.8 %"}, {"measurement": "IMg current density", "setting": "GluN1–GluN2B^WT [7]; [9]", "value": "−0.07 ± 0.03", "unit": "pA/pF"}, {"measurement": "IMg/IKrebs", "setting": "GluN1–GluN2B^WT [7]; [10]", "value": "0.91 ± 0.37", "unit": "%"}]}
